Test system: T84 cells
Experiment: Cl^- secretion measured as short-circuit current (Isc) across T84 cell monolayers in Ussing chambers
Type: cell-based
Description: Materials and Methods: Cultured T84 epithelial cells were employed as a model of the colonic epithelium. T84 cells were grown as monolayers on filter supports. When grown in this way T84 cells retain many of the characteristics of native intestinal epithelium and are widely considered as being among the best reductionist models for analysing intestinal epithelial secretory responses. T84 cell monolayers were mounted in Ussing chambers, and voltage-clamped to zero potential difference. Under these conditions, transepithelial ion transport can be measured as changes in short-circuit current (Isc) and such changes in Isc across T84 cells have been established as wholly due to Cl^- ion secretion. […]

Compound: 6-methyl-UDCA [MUDCA]
- secretory responses to CCh (100µM and 500µM for 15 minutes before CCh (100µM) (Figure 7)): inhibited secretory responses to both CCh and FSK
- secretory responses to FSK (100µM and 500µM for 15 minutes before FSK (10µM) (Figure 7)): inhibited secretory responses to both CCh and FSK

Compound: C[C@H](CCC(=O)O)[C@H]1CC[C@H]2[C@@H]3[C@@H](O)C[C@@H]4C[C@H](O)CC[C@]4(C)[C@H]3CC[C@]12C [UDCA, ursodeoxycholic acid]
- minimal effective concentration (Homo sapiens, responses to CCh, T84 cells (Figure 3B), read-out: concentration at which antisecretory effects are apparent): 50 µM
